The results in this text go back to paper PMC11874377, “Fungal-derived methyldeoxaphomins target Plasmodium falciparum segregation through the inhibition of PfActin1” (Proceedings of the National Academy of Sciences of the …, 2025).

Common to all, as to assay type: cell-based, Plasmodium falciparum
One assay has as its system Dd2-Pol δ parent line. The assay can be described thus: Resistant parasite phenotyping and cross resistance, SYBR green I EC50 assay, parent line. To be noted: Plasmodium falciparum; strain Dd2-Pol δ -parent; read-out: EC50 (mean ± SEM). The procedure: (§1) Cloning by limiting dilution was then performed to isolate individual lines from the bulk population. Due to the multiple mutations identified in the first biological replicate, we isolated four clones from this bulk culture as compared to two clones each from the second and third replicates. These clones were phenotyped via a SYBR green I-based dose–response assay (Table 2 and Fig. 2B). […] The DNA of these clones was then extracted and subjected to whole-genome sequencing.
(§2) Resistant parasite phenotyping and cross resistance measurement
(§3) The EC50 assay was performed at 1% parasitemia, 1% hematocrit with SYBR green I in 96-well plates. The highest final concentration of the methyldeoxaphomin NPDG-F was set at 100 μM. Briefly, the compound was subjected to a 3-fold serial dilution with ten dilution points. Three technical replicates were set up at each dilution point. The Dd2-Pol δ parent line and the resistant parasites at 2% hematocrit and 1% parasitemia were added to the drug media at 1:1 ratio. The plate was incubated at 37°C for 72 hours in a chamber filled with a hypoxic gas mixture (3% oxygen, 5% carbon dioxide, and 92% nitrogen). After incubation, the cells were lysis with lysis buffer (20 mM Tris-HCL, 0.08% saponin, 5 mM EDTA, and 0.8% Triton X-100) containing SYBR green I (10,000X, Thermo Fisher, cat # S7563) overnight. Fluorescence was measured at 485nm excitation and 530nm emission using a PHERAstar FSX plate reader (BMG Labtech, Germany). Dose response curves were graphed with Prism 9 Version 9.5.1.
3D structural analysis of the mutations and docking studies
The crystal structure of PfActin1 with accession number 6TU4 (resolution 2.60 Ang) (Vahokoski et al., 2022) was obtained from the Protein Data Bank (PDB). This structure of PfActin1 contains ligands Jasplakinolide and ADP with a coordinating magnesium ion.
Only chain A was used for the docking experiment. […] Schrodinger maestro software (Schrödinger, LLC) was used to build NPDG-F with the proper stereochemistry using the x-ray structure determined for analog NPDG-A (vide supra). […]

The subject of assay [1] is in vitro evolved NPDG-F-resistant Dd2-Pol δ clones (PfActin1 mutations). The assay can be described thus: Resistant parasite phenotyping and cross resistance, SYBR green I EC50 assay, NPDG-F-resistant clones. The note with it: for EC50: Plasmodium falciparum, read-out: EC50 (mean ± SEM). The protocol:
as §1
To investigate whether NPDG-F has the same mode of action as cytochalasin D, we tested our clones for sensitivity to both cytochalasin D and jasplakinolide.
as §2
as §3, with “9.5.1. […]” for “9.5.1.”

Assay [2] deals with P. falciparum multidrug resistant line Dd2. Kind of assay: SYBR Green I-based antiplasmodial assay, asexual blood stage, Dd2. The protocol:
The antiplasmodial activity of these analogs was assessed in P. falciparum asexual blood stage using a SYBR Green I-based assay. Compounds were tested in both the multidrug resistant line Dd2, and the chloroquine-sensitive line 3D7, to probe any potential for preexisting resistance. […] These methyldeoxaphomin analogs were also cross-screened for cytotoxicity in the human cell line HepG2 to determine their selectivity for the Plasmodium parasite. […] This effect was maintained with analog NPDG-F where both R1 and R2 were substituted with OH groups. […] In addition, the hydroxyl group at carbon 7 seems to be critical for function as a drastic loss of potency was found in NPDG-D as compared to B and C. […]
Plasmodium blood stage culture
Parasite culture in the Chakrabarti lab was maintained following a modified Trager and Jensen protocol (Trager & Jensen, 1976) as previously described (Lee et al., 2021) with RPMI 1640 with 25 mM HEPES pH 7.4, 26 mM NaHCO3, 15 mg/L hypoxanthine, 0.5% Albumax II, 25 mg/L gentamycin, and 2% dextrose. Parasites were grown with human A+ erythrocytes obtained from Florida OneBlood. Cultures were kept in an incubator with 5% […]
Antiplasmodial activity screening
SYBR Green I-based fluorescence assay was performed as previously described (Lee et al., 2021) following protocols by Smilkstein et. al. (Smilkstein et al., 2004). Asynchronous Dd2 parasites were added to serially diluted compounds and incubated for 72 h at 5% CO2, 95% air at 37°C. Plates were then frozen at -80°C, thawed, and incubated for one hour with 1x SYBR Green I in a lysis buffer (20 mM Tris-HCL, 0.08% saponin, 5 mM EDTA, and 0.8% Triton X-100). Fluorescence was then read on a Synergy Neo2 multimode reader (BioTek Winsooki, VT). […]

Structures are written as SMILES. Read-outs that look alike come from different tables or passages of the source.

The EC50 is the concentration at which the effect is half-maximal. For the compound `C=C1C(C)C2C(Cc3ccccc3)NC(=O)C23C(=O)C=CC(O)C(O)C(C)CC(C)CC=CC3C1O` (stereo not drawn) [Methyldeoxaphomin NPDG-F], the EC50 in the assay with Dd2-Pol δ parent line amounted to 3.43 µM; in assay [1] (DD2, clone 1-C7, A171S (8%), A171V (92%), I290L) it was 11.5 µM; in assay [1] (DD2, clone 1-D6, A171S (3%), A171V (97%), I290L), 7.79 µM; in assay [1] (DD2, clone 1-D7, A171S (22%), A171V (78%), I290L) it was 9.02 µM; in assay [1] (DD2, clone 1-F3, A171S (4%), A171V (96%), I290L), 7.04 µM; in assay [1] (DD2, clone 2-C4, A136S) it was 14.1 µM. Besides, the EC50 in assay [1] (DD2, clone 2-F5, A136S) came out at 10.2 µM; in assay [1] (DD2, clone 3-C3, A136S) it was 12.7 µM; in assay [1] (DD2, clone 3-C5, A136S), 10 µM; in assay [2] (Plasmodium falciparum, DD2, 72 h, read-out: Dd2 EC50, means from triplicate experiments ± SEM, 72 h), 0.55 µM; in assay [2] (Plasmodium falciparum, DD2, read-out: Dd2: Average EC50, average ± SEM of three replicates), 0.55 ± 0.04 µM; in assay [2] (Plasmodium falciparum, DD2, read-out: Dd2: EC50, individual replicates) it was 0.5 µM. The EC50 was found to be 0.55 µM in assay [2] (Plasmodium falciparum, DD2, read-out: EC50 in Dd2, abstract) and 0.58 µM in assay [2] (read-out: Dd2: EC50, individual replicates). For the same compound, the “average EC50 shift, clones from flasks 2 and 3” value in assay [1] (A136S) was 3.5 fold. In assay [1] (A171V/S and I290L clones), the “average EC50 shift, clones from flask 1” value is recorded as 2.6 fold. Besides, the Fold change in assay [1] (clone 1-C7 vs Dd2-Pol δ parent) was found to be 3.3; in assay [1] (clone 1-D6 vs Dd2-Pol δ parent) it was 2.3; in assay [1] (clone 1-D7 vs Dd2-Pol δ parent) it was 2.6; in assay [1] (clone 1-F3 vs Dd2-Pol δ parent) it was 2.1; in assay [1] (clone 2-C4 vs Dd2-Pol δ parent), 4.1; in assay [1] (clone 2-F5 vs Dd2-Pol δ parent), 3.0. The Fold change is 3.7 in assay [1] (clone 3-C3 vs Dd2-Pol δ parent) and 2.9 in assay [1] (clone 3-C5 vs Dd2-Pol δ parent).
